Assay results reported in PMC4963535, “Structure-guided development of heterodimer-selective GPCR ligands” (Nature Communications, 2016).
“Also recorded” adds a separate entry of the source. One block for each compound: values may come before it.

Assays:
D2SR/NTS1R = target: T1, D2SR/NTS1R (Homo sapiens, UniProt P14416+P30989); experiment: cAMP BRET assay (CAMYEL biosensor), HEK 293 T cells coexpressing D2SR and NTS1R; format: cell-based; conditions: for Emax: HEK-293T, read-out: Effect (Emax) D2SR/NTS1R, cAMP accumulation
T1 construct: expressed in transfected cells; host or cells: HEK 293 T
Protocol: (§1) 24 h post-transfection cells were seeded into white half-area 96-well plates at 2.0 × 10^4 cells per well and grown overnight. On the following day phenol red free medium was removed and replaced by PBS and cells were serum starved for 1 h before treatment. The assay was started by adding 10 μl coelenterazine-h (Promega, Mannheim, Germany) to each well to yield a final concentration of 5 μM. After 5 min incubation, compounds were added in PBS containing 50 μM forskolin (final concentration 10 μM). Reads of the plates started 15 min after agonist addition. BRET readings were collected using a CLARIOstar plate reader (BMG LabTech, Ortenberg, Germany). […] Curves were normalized to basal BRET ratio obtained from dPBS (0%) and the effect of 10 μM forskolin (100%).

hD4.4R = target: T2, hD4.4R (Homo sapiens, UniProt P21917); experiment: [3H]spiperone displacement, membranes from CHO cells stably expressing hD4.4R; format: binding
T2 construct: expressed in transfected cells
T2 sequence (P21917 1-419): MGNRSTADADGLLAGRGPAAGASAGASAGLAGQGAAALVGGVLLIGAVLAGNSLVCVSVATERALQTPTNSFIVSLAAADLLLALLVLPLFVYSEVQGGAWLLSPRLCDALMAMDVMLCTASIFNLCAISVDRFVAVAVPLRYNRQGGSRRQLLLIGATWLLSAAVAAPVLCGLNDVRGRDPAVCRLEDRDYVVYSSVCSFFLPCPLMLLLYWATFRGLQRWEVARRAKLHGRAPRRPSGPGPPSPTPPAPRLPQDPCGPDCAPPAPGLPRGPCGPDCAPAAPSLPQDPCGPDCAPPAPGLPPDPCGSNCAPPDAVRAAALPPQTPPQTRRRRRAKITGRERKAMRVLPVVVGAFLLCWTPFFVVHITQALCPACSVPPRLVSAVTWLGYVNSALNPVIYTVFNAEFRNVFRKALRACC
Description: (§2) In brief, competition binding experiments with the human D2LR, D2SR38, D3R39, and D4.4R40 receptors were perfomed using preparations of membranes from CHO cells stably expressing the corresponding receptor together with
(§3) the D2LR, D2SR, D3R, and D4.4R receptors, respectively. Homogenates from CHO cells stably expressing the human NTS1R (cDNA purchased from Missouri S&T cDNA Resource Center (UMR), Rolla, MO) at
(§4) 1; PerkinElmer, Rodgau, Germany). Human NTS2R binding was achieved using homogenates from HEK
(§5) method41. Membranes were incubated at a final concentration of 4 µg per well with Bmax values of 350-
(§6) Freiburg, Germany). Unspecific binding was determined in the presence of haloperidol (10 µM for D2LR-
(§7) Protein concentration was established by the method of Lowry using bovine serum albumin as standard42.

D2R = target: T3, D2R (Homo sapiens, UniProt P14416); experiment: Antagonist effect on quinpirole-mediated inhibition of cAMP accumulation, HEK 293T cells expressing D2R; format: cell-based; conditions: 10 nM quinpirole
T3 construct: expressed in transfected cells; host or cells: HEK 293 T
Protocol: as §1

hD3R = target: T4, hD3R (Homo sapiens, UniProt P35462); experiment: [3H]spiperone displacement, membranes from CHO cells stably expressing hD3R; format: binding
T4 construct: expressed in transfected cells

D2SR = target: T5, D2SR (Homo sapiens, UniProt P14416); experiment: cAMP BRET assay (CAMYEL biosensor), HEK 293 T cells expressing D2SR; format: cell-based
T5 construct: expressed in transfected cells; host or cells: HEK 293 T
Protocol: as §1

D2R/NTS1R = target: T6, D2R/NTS1R (Homo sapiens, UniProt P14416+P30989); experiment: β-arrestin-2 recruitment (DiscoveRx PathHunter), HEK 293 cells with ProLink-tagged D2R and NTS1R; format: cell-based; conditions: D2R/NTS1R-coexpressing cells
T6 construct: host or cells: HEK 293 stably expressing EA-tagged β-arrestin-2
Protocol: (§8) The measurement of β-arrestin-2 recruitment stimulated by receptor activation was performed by utilizing the PathHunter assay purchased from DiscoveRx (Birmingham, UK) according to the manufacturer's protocol. […] Dose–response curves were calculated by nonlinear regression using the algorithms of PRISM 6.0. Control experiments were performed using the same approach and transfection of ProLink(PK1)-tagged PAR2 together with wild-type NTS1R. […] Resulting responses were then normalized to the effect of the PAR2 agonist f-LIGRLO-NH2.

D2R_D80A/NTS1R [1] = target: T7, D2R_D80A/NTS1R (Homo sapiens, UniProt P14416+P30989, D80A); experiment: β-arrestin-2 recruitment (DiscoveRx PathHunter), ProLink-tagged signalling incompetent D2R_D80A coexpressed with NTS1R; format: cell-based
T7 construct: host or cells: HEK 293 stably expressing EA-tagged β-arrestin-2
Protocol: as §8

D2LR/NTS1R = D2LR/NTS1R (Homo sapiens, UniProt P14416+P30989); experiment: [3H]spiperone displacement, membranes from HEK 293 T cells coexpressing D2LR and NTS1R
Protocol: (§9) Receptor-binding studies were carried out in analogy to a previously described method[53]. […] Protein concentration was established by the method of Lowry using bovine serum albumin as standard[54].
(§10) The resulting competition curves of the receptor-binding experiments were analysed by nonlinear regression using the algorithms in PRISM 6.0 (GraphPad Software, San Diego, CA). For each individual experiment, the data were fitted using a monophasic competition model to provide an IC50 value, which was then transformed into a Ki value according to the equation of Cheng and Prusoff[55].

hNTS2R = target: T8, hNTS2R (Homo sapiens, UniProt O95665); experiment: [3H]NT(8-13) displacement, homogenates from transiently transfected HEK 293T cells, human NTS2R; format: binding
T8 construct: host or cells: HEK 293T
Description: as §2, §3, §4, §5, §6, §7

NTS1R [2] = target: T9, NTS1R (Homo sapiens, UniProt P30989); experiment: cAMP BRET assay (CAMYEL biosensor), HEK 293 T cells expressing NTS1R; format: cell-based; parameters: expressed in transfected cells; host or cells: HEK 293 T
Protocol: as §1

human D2LR = target: T10, human D2LR (Homo sapiens, UniProt P14416); experiment: [3H]spiperone displacement, membranes from HEK 293 T cells transiently transfected with D2LR; format: binding; conditions: D2LR monoexpression; mean ± s.e.m.
T10 construct: host or cells: HEK 293 T
Protocol: as §9, §10

hD2SR = target: T11, hD2SR (Homo sapiens, UniProt P14416); experiment: [3H]spiperone displacement, membranes from CHO cells stably expressing hD2SR; format: binding
T11 construct: expressed in transfected cells
Description: as §2, §3, §4, §5, §6, §7

hD2LR = target: T12, hD2LR (Homo sapiens, UniProt P14416); experiment: [3H]spiperone displacement, membranes from CHO cells stably expressing hD2LR; format: binding
T12 construct: expressed in transfected cells

D2R_D80A/NTS1R [3] = target: T7, D2R_D80A/NTS1R; experiment: cAMP accumulation, cells coexpressing signalling incompetent D2R (D80A) and NTS1R; format: cell-based
Protocol: as §1
inhibit cAMP accumulation.
Data represent mean ± s.e.m.
of 3 independent experiments, each performed in triplicate.

NTS1R [4] = target: T9, NTS1R; experiment: radioligand displacement, homogenates from CHO cells stably expressing human NTS1R; format: binding; conditions: [3H]NT, mean ± s.d.
Description: as §2, §3, §4, §5, §6, §7

T9 sequence (P30989 whole entry): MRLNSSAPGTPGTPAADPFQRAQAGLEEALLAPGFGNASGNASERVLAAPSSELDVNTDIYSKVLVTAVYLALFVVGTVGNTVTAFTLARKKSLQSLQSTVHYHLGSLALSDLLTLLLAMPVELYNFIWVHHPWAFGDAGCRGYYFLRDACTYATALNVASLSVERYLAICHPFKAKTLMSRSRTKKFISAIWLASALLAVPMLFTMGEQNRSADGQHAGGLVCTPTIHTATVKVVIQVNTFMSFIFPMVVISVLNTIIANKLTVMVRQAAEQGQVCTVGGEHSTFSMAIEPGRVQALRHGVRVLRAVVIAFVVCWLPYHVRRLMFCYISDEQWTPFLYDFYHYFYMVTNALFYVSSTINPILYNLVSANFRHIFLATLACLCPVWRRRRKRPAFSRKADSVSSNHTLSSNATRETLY
D2LR/NTS1R, sequence (P14416 whole entry): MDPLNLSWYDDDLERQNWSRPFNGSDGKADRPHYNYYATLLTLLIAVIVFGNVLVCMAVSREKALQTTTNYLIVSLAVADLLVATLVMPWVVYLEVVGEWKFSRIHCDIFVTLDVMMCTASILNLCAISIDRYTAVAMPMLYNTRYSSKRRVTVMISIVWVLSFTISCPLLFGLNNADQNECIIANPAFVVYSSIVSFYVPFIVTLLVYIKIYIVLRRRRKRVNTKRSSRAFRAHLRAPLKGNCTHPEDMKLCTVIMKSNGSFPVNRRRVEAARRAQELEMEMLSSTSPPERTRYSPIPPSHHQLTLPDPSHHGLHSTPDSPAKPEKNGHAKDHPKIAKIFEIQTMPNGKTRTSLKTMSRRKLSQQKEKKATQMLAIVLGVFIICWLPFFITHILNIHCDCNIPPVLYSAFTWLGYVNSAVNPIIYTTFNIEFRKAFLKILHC
D2LR/NTS1R, sequence (P30989 whole entry): as the sequence (P30989 whole entry) above
T5 sequence (P14416 1-414 isoform P14416-2): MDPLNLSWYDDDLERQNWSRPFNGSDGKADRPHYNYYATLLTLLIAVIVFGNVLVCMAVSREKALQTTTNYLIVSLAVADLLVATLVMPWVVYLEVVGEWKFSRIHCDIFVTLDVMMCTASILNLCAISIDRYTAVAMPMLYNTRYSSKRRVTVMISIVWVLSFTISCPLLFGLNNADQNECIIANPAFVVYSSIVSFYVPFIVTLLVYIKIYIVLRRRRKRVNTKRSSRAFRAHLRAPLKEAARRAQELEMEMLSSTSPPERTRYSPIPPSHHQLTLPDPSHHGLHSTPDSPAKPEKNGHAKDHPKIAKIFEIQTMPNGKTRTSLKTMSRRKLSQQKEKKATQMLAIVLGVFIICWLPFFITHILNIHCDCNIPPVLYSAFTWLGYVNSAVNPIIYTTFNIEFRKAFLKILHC
T1 sequence (P14416 1-414 isoform P14416-2): as above
T1 sequence (P30989 whole entry): as the sequence (P30989 whole entry) above
T4 sequence (P35462 whole entry): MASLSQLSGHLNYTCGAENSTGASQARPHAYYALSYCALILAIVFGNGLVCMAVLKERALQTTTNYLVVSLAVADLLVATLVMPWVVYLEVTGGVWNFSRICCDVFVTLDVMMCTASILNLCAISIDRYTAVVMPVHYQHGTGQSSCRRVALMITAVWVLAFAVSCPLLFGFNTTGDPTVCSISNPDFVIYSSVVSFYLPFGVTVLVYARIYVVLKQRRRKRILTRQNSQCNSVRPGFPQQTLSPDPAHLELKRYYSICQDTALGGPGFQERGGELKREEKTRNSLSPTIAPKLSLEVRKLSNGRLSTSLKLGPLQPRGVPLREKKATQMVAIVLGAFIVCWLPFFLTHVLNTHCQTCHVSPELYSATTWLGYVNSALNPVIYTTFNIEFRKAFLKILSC
T3 sequence (P14416 1-414 isoform P14416-2): as the sequence (P14416 1-414 isoform P14416-2) above
T7 sequence (P14416 1-414 isoform P14416-2 D80A): as the sequence (P14416 1-414 isoform P14416-2) above, with D80A counted along it
T7 sequence (P30989 whole entry): as the sequence (P30989 whole entry) above
T12 sequence (P14416 whole entry): as the sequence (P14416 whole entry) above
T10 sequence (P14416 whole entry): as above
T11 sequence (P14416 1-414 isoform P14416-2): as the sequence (P14416 1-414 isoform P14416-2) above
T6 sequence (P14416 1-414 isoform P14416-2): as above
T6 sequence (P30989 whole entry): as the sequence (P30989 whole entry) above
T8 sequence (O95665 whole entry): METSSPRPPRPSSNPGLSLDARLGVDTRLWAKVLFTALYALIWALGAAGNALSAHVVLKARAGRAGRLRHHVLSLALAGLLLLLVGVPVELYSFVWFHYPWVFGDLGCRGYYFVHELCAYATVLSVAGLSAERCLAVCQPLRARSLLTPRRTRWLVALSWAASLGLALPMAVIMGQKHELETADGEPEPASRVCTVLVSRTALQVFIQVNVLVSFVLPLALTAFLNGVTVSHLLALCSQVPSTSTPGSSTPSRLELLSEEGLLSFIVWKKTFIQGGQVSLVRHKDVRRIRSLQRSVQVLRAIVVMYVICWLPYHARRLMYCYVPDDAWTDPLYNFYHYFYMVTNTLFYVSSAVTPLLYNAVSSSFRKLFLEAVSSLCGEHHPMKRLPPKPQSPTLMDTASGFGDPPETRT

SMILES: CC[C@H](C)[C@H](NC(=O)[C@H](Cc1ccc(O)cc1)NC(=O)[C@@H]1CCCN1C(=O)[C@H](CCCNC(=N)N)NC(=O)[C@H](CCCNC(=N)N)NC(=O)CCOCCOCCOCCOCCOCCOCCNC(=O)CCOCCOCCOCCOCCOCCOCCNC(=O)c1ccc(-c2ccc(-n3cc(CCCCN4CCN(c5ccccc5OC)CC4)nn3)cc2)cc1)C(=O)N[C@@H](CC(C)C)C(=O)O [2b]
Emax (D2SR/NTS1R): 31 ± 3%
change of cAMP levels in the absence of forskolin (D2SR/NTS1R; no forskolin, vehicle 0 %, maximum effect of NT(8-13) 100 %): 83%
Ki (hD4.4R): 180 ± 20 nM
antagonist behaviour at D2R (in words) (D2R): neutral antagonists; also recorded: fully inhibit the effect of 10 nM quinpirole
Ki (hD3R): 5.5 ± 0.9 nM
effect on forskolin-induced cAMP accumulation, cells expressing D2R only (in words) (D2SR; 10 μM forskolin): remained without significant effects
concentration of maximum β-arrestin-2 recruitment (bell-shaped curve) (D2R/NTS1R): 300 nM
concentration of maximum effect (bell-shaped curve), D2R_D80A/NTS1R (D2R_D80A/NTS1R [1]): 300 nM
preference for the high- over the low-affinity binding site in the presence of GppNHp (D2LR/NTS1R; 100 μM GppNHp): 330 fold
Fraction high (fraction representing the high-affinity binding site) (D2LR/NTS1R; D2LR:NTS1R 1:2, mean ± s.e.m.): 55 ± 3%
high affinity binding sites (fraction) (D2LR/NTS1R; D2R/NTS1R = 2:1): 49 ± 3%
high affinity binding sites (fraction) (D2LR/NTS1R; D2R/NTS1R = 3:1): 30 ± 3%
fraction high +GppNHp (D2LR/NTS1R; in presence of 100 μM GppNHp): 46 ± 3%

Ki (hNTS2R): 300 ± 250 nM
receptor activation (cAMP), cells monoexpressing NTS1R (in words) (NTS1R [2]; 10 μM forskolin): caused no effect
cAMP response, cells expressing NTS1R only, absence of FSK (in words) (NTS1R [2]; no forskolin): do not elicit any response
Ki (human D2LR): 21 ± 4 nM
Ki (hD2SR): 3.3 ± 0.8 nM
Emax (D2SR/NTS1R): -63 ± 2%
EC50 (D2SR/NTS1R; read-out: EC50 D2SR/NTS1R, cAMP accumulation): 3.5 ± 1.4 nM
Ki (hD3R): 0.53 ± 0.25 nM
Emax (D2SR; HEK-293T, read-out: Effect (Emax) D2SR, cAMP accumulation): -65 ± 1%
EC50 (D2SR; read-out: EC50 D2SR, cAMP accumulation): 2.8 ± 0.4 nM
Ki (hD2LR): 7.6 ± 1.7 nM
inhibition of cAMP accumulation, D2R (D80A)/NTS1R (in words) (D2R_D80A/NTS1R [3]): unable to inhibit cAMP accumulation
Ki (NTS1R [4]): 180 ± 40 nM
SMILES: CCCN(CCCCc1cn(-c2ccc(-c3ccc(C(=O)NCCOC)cc3)cc2)nn1)C1Cc2ccccc2C1 [3g]
